Measured values as given in ChEMBL document CHEMBL1138862 (J Med Chem, 2006).

Tests used:
Type in all cases: functional
Escherichia coli [1] = experiment: Antibacterial activity against Escherichia coli W3110
Escherichia coli [2] = experiment: Antibacterial activity against Escherichia coli pTMV19
Escherichia coli [3] = experiment: Antibacterial activity against Escherichia coli pTMV19 in presence of mevalonate

Row | SMILES | inhibition zone (IZ) (Escherichia coli [1]) | inhibition zone (IZ) (Escherichia coli [2]) | inhibition zone (IZ) (Escherichia coli [3])
1 | O=P(O)(O)C(Nc1ccc(Br)cn1)P(=O)(O)O | 12 mm | 11 mm | 8 mm
2 | O=P(O)(O)C(Sc1ccccn1)P(=O)(O)O | 0 mm | 0 mm | 0 mm
3 | CCC1CCCCN1C(P(=O)(O)O)P(=O)(O)O (stereo unspecified) | 0 mm | – | –
4 | CC1CCN(C(P(=O)(O)O)P(=O)(O)O)CC1 | 0 mm | – | –
5 | Cc1cc(Br)cnc1NC(P(=O)(O)O)P(=O)(O)O | 0 mm | 0 mm | 0 mm
6 | CC1CCCC(C)N1C(P(=O)(O)O)P(=O)(O)O (stereo unspecified) | 0 mm | – | –
7 | CC1CCCN(C(P(=O)(O)O)P(=O)(O)O)C1 (stereo unspecified) | 0 mm | – | –
8 | O=P(O)(O)Cc1cccc(CP(=O)(O)O)c1 | 0 mm | – | –
9 | O=P(O)(O)C(Nc1cccc(Cc2ccccc2)c1)P(=O)(O)O | 7 mm | 8 mm | 0 mm
10 | CCc1ccc(NC(P(=O)(O)O)P(=O)(O)O)cc1 | 0 mm | – | –
11 | CCc1cccc(NC(P(=O)(O)O)P(=O)(O)O)n1 | 0 mm | – | –
12 | O=P(O)(O)C(O)(Cc1cccc(F)c1)P(=O)(O)O | 0 mm | – | –
13 | CC(C)c1cccc(C(C)C)c1NC(P(=O)(O)O)P(=O)(O)O | 0 mm | – | –
14 | Cc1ncccc1NC(P(=O)(O)O)P(=O)(O)O | 7 mm | 8 mm | 12 mm
15 | CCC(C)NC(P(=O)(O)O)P(=O)(O)O (stereo unspecified) | 0 mm | – | –
16 | O=P(O)(O)C(Nc1ncccc1COc1ccccc1)P(=O)(O)O | 0 mm | – | –
17 | O=P(O)(O)C(=Nc1cccnc1)P(=O)(O)O | 0 mm | – | –
18 | O=P(O)(O)C(Nc1ncc(Br)cc1Br)P(=O)(O)O | 0 mm | – | –
19 | Cc1cccnc1NCC(P(=O)(O)O)S(=O)(=O)O (stereo unspecified) | 0 mm | – | –
20 | O=P(O)(O)C(Nc1cccc(Oc2ccccc2)c1)P(=O)(O)O | 0 mm | – | –
21 | O=P(O)(O)C(Nc1ccccn1)P(=O)(O)O | 7 mm | 8 mm | 12 mm

Row | SMILES | inhibition zone (IZ) (Escherichia coli [1]) | inhibition zone (IZ) (Escherichia coli [2]) | inhibition zone (IZ) (Escherichia coli [3])
22 | O=P(O)(O)C(Nc1ccc(-c2ccccc2)cc1)P(=O)(O)O | 9 mm | 8 mm | 7 mm
23 | O=P(O)(O)C(O)(CCc1cccnc1)P(=O)(O)O | 0 mm | – | –
24 | O=P(O)(O)C(CNc1ccccn1)P(=O)(O)O | 0 mm | – | –
25 | NCCCCC(O)(P(=O)(O)O)P(=O)(O)O | 0 mm | – | –
26 | CCCCC(O)(P(=O)(O)O)P(=O)(O)O | 0 mm | – | –
27 | CC(C)(C)c1cc(NC(P(=O)(O)O)P(=O)(O)O)cc(C(C)(C)C)c1 | 0 mm | – | –
28 | O=P(O)(O)C(Nc1cccnc1)P(=O)(O)O | 0 mm | – | –
29 | O=P(O)(O)C(Nc1cccnc1Cl)P(=O)(O)O | 0 mm | – | –
30 | CC(C)(C)c1cccc(NC(P(=O)(O)O)P(=O)(O)O)c1 | 7 mm | 7 mm | 0 mm
31 | CC1CCCCN1C(P(=O)(O)O)P(=O)(O)O (stereo unspecified) | 0 mm | – | –
32 | CC(NC(P(=O)(O)O)P(=O)(O)O)c1cccc2ccccc12 (stereo unspecified) | 0 mm | 0 mm | 0 mm
33 | CC1CC(C)CN(C(P(=O)(O)O)P(=O)(O)O)C1 (stereo unspecified) | 0 mm | – | –
34 | CN(Cc1ccccc1)C(P(=O)(O)O)P(=O)(O)O | 0 mm | – | –
35 | O=P(O)(O)C(CNc1cccnc1)P(=O)(O)O | 0 mm | – | –
36 | Cc1nc(NC(P(=O)(O)O)P(=O)(O)O)c(Br)cc1Br | 0 mm | – | –
37 | O=P(O)(O)C(O)(Cc1cn2ccccc2n1)P(=O)(O)O | 0 mm | – | –
38 | O=P(O)(O)C(Nc1cc2ccccc2cn1)P(=O)(O)O | 0 mm | – | –
39 | CCCCCCCCCCCC(O)(P(=O)(O)O)P(=O)(O)O | 0 mm | – | –
40 | O=P(O)(O)CC(c1cccnc1)P(=O)(O)O (stereo unspecified) | 0 mm | – | –
41 | Nc1ccc(CC(O)(P(=O)(O)O)P(=O)(O)O)cc1 | 0 mm | – | –
42 | O=P(O)(O)C(Nc1ccc(I)cn1)P(=O)(O)O | 7 mm | 7 mm | 7 mm

Row | SMILES | inhibition zone (IZ) (Escherichia coli [1]) | inhibition zone (IZ) (Escherichia coli [2]) | inhibition zone (IZ) (Escherichia coli [3])
43 | O=P(O)(O)C(O)(Cc1ccccn1)P(=O)(O)O | 0 mm | – | –
44 | CCCCOc1ccc(NC(P(=O)(O)O)P(=O)(O)O)cc1 | 0 mm | – | –
45 | O=P(O)(O)C(N1CCCCC1)P(=O)(O)O | 0 mm | – | –
46 | CCCC(O)(P(=O)(O)O)P(=O)(O)O | 0 mm | – | –
47 | CN(CCOc1ccccc1)CCC(O)(P(=O)(O)O)P(=O)(O)O | 11 mm | 15 mm | 11 mm
48 | O=P(O)(O)CC(c1ccncc1)P(=O)(O)O (stereo unspecified) | 0 mm | – | –
49 | O=P(O)(O)C(Nc1ccc(Cl)cn1)P(=O)(O)O | 13 mm | 9 mm | 12 mm
50 | CCc1cccc(NC(P(=O)(O)O)P(=O)(O)O)c1 | 0 mm | – | –
51 | CCCCCCC(O)(P(=O)(O)O)P(=O)(O)O | 0 mm | – | –
52 | CC(N)CC(O)(P(=O)(O)O)P(=O)(O)O (stereo unspecified) | 0 mm | – | –
53 | O=P(O)(O)C(O)(CSc1ccncc1)P(=O)(O)O | 0 mm | – | –
54 | CCCCCCCCCCCCCCCCCC(O)(P(=O)(O)O)P(=O)(O)O | 0 mm | – | –
55 | O=P(O)(O)C(Nc1c(F)c(F)c(F)c(F)c1F)P(=O)(O)O | 0 mm | – | –
56 | CCCCCCCCCCCCCC(O)(P(=O)(O)O)P(=O)(O)O | 0 mm | – | –
57 | CCCCCCCCCCCCCCCC(O)(P(=O)(O)O)P(=O)(O)O | 0 mm | – | –
58 | O=P(O)(O)C(O)(Cc1ccncc1)P(=O)(O)O | 0 mm | – | –
59 | O=P(O)(O)C(Nc1ccc2c(c1)CCC2)P(=O)(O)O | 0 mm | – | –
60 | CCC(C)CNC(P(=O)(O)O)P(=O)(O)O (stereo unspecified) | 0 mm | – | –
61 | CCCCc1ccc(NC(P(=O)(O)O)P(=O)(O)O)cc1 | 0 mm | – | –
62 | O=P(O)(O)C(Nc1ccc(Cl)nc1)P(=O)(O)O | 0 mm | – | –
63 | O=P(O)(O)C(O)(Cc1ccccc1)P(=O)(O)O | 0 mm | – | –

Row | SMILES | inhibition zone (IZ) (Escherichia coli [1]) | inhibition zone (IZ) (Escherichia coli [2]) | inhibition zone (IZ) (Escherichia coli [3])
64 | O=P(O)(O)C(Nc1ccc(Cl)cc1Cl)P(=O)(O)O [2,4-DICHLOROPHENYLAMINOMETHYLENEBISPHOSPHONIC ACID] | 0 mm | – | –
65 | CCCCNC(P(=O)(O)O)P(=O)(O)O [(BUTYLAMINO)METHYLENEDIPHOSPHONIC ACID] | 0 mm | – | –
66 | O=P(O)(O)C(NC1CCC1)P(=O)(O)O [(CYCLOBUTYLAMINO)METHYLENEDIPHOSPHONIC ACID] | 0 mm | – | –
67 | O=P(O)(O)C(NC1CCCC1)P(=O)(O)O [(CYCLOPENTYLAMINO)METHYLENEDIPHOSPHONIC ACID] | 0 mm | – | –
68 | CCCN(CCC)C(P(=O)(O)O)P(=O)(O)O [(DIPROPYLAMINO)METHYLENEDIPHOSPHONIC ACID] | 0 mm | – | –
69 | CC(C)CCNC(P(=O)(O)O)P(=O)(O)O [(ISOPENTYLAMINO)METHYLENEDIPHOSPHONIC ACID] | 0 mm | – | –
70 | CCCCCCCCCNC(P(=O)(O)O)P(=O)(O)O [(NONYLAMINO)METHYLENEDIPHOSPHONIC ACID] | 0 mm | – | –
71 | CCCCCCCCNC(P(=O)(O)O)P(=O)(O)O [(OCTYLAMINO)METHYLENEDIPHOSPHONIC ACID] | 0 mm | – | –
72 | CCCNC(P(=O)(O)O)P(=O)(O)O [(PROPYLAMINO)METHYLENEDIPHOSPHONIC ACID] | 0 mm | – | –
73 | O=P(O)(O)C(O)(C1CCC1)P(=O)(O)O [CYCLOBUTYL(HYDROXY)METHYLENEDIPHOSPHONIC ACID] | 0 mm | – | –
74 | O=P(O)(O)C(O)(C1CC1)P(=O)(O)O [CYCLOPROPYL(HYDROXY)METHYLENEDIPHOSPHONIC ACID] | 0 mm | – | –
75 | CCCCCN(C)CCC(O)(P(=O)(O)O)P(=O)(O)O [IBANDRONIC ACID] | 0 mm | – | –
76 | O=P(O)(O)C(NC1CCCCCC1)P(=O)(O)O [INCADRONIC ACID] | 0 mm | – | –
77 | O=P(O)(O)C(N1CCCCCCC1)P(=O)(O)O [N-(HEPTAMETHYLENEIMINO)METHYLENEBISPHOSPHONIC ACID] | 0 mm | – | –
78 | NCCCCCC(O)(P(=O)(O)O)P(=O)(O)O [NERIDRONIC ACID] | 0 mm | – | –
79 | NCCC(O)(P(=O)(O)O)P(=O)(O)O [PAMIDRONIC ACID] | 0 mm | – | –
80 | O=P(O)(O)C(O)(Cc1cccnc1)P(=O)(O)O [RISEDRONIC ACID] | 0 mm | – | –
81 | O=P(O)(O)C(N1CCSCC1)P(=O)(O)O [THIOMORPHOLINOMETHYLENEDIPHOSPHONIC ACID] | 0 mm | – | –
82 | O.O=P(O)(O)C(O)(Cn1ccnc1)P(=O)(O)O [ZOLEDRONIC ACID] | 0 mm | – | –
